We go through 1 molecule from article PMC6240685, “Strong Inhibitory Effect, Low Cytotoxicity and High Plasma Stability of Steroidal Inhibitors of N-Methyl-D-Aspartate Receptors With C-3 Amide Structural Motif” (Frontiers in Pharmacology, 2018).

Data set [1] deals with native NMDARs. Nature of the data set: Inhibition of native NMDAR responses in cultured hippocampal neurons. The class given is cell-based, rat. The method, then: FIGURE 8 The effect of compound 6 on peak and steady-state responses of native NMDARs, AMPARs, and GABARs. (A) Examples of traces obtained from cultured hippocampal neurons. Compound 6 (10 μM) was pre-applied in the absence of agonists followed by co-application with NMDA (100 μM), AMPA (100 μM), and GABA (5 μM) (duration of agonist and steroid application is indicated by filled and open bars, respectively). (B) Bar graph represents the mean values of relative changes in the peak (black columns) and steady-state (red columns) responses of native NMDARs, AMPARs, and GABARs recorded in the continuous presence of 10 μM compound 6. Error bars represent SD from five independent measurements. Asterisks mark significance at the level of P < 0.05 (Paired t-test). […]
Electrophysiological experiments were performed on HEK293 cells transfected with plasmids encoding rat GluN1-1a/GluN2A-D and GFP genes as described previously, ([Petrovic et al., 2005]; [Cais et al., 2008]; [Korinek et al., 2010]) or on primary hippocampal neurons prepared from P0–P1 rats, plated on collagen/poly-D-lysine-coated glass coverslips at a density of ∼50,000 cells/cm^2, and grown in Neurobasal A medium with B27 Supplement (Gibco). […] Agonist-induced responses were low-pass filtered at 2 kHz, digitally sampled at 5 kHz, and analyzed with pClamp software version 10.5 (Molecular Devices). […]

A short description of data set [2]: Plasma stability, rat plasma. The class given is in vitro ADME. Conditions: rat, plasma.

The term IC50 denotes the concentration that gives 50% inhibition. A higher IC50 goes with weaker potency in that assay. One may read the amount remaining as the share of the starting amount still present when the sample was taken. On to `C[C@@]12CCC[C@H]1[C@@H]1CC[C@@H]3C[C@H](NC(=O)[C@@H](N)CC(=O)O)CC[C@]3(C)[C@H]1CC2` [Compound 6, (S)-3-amino-4-(((3R,5R,8S,9S,10S,13S,14S)-10,13-dimethylhexadecahydro-1H-cyclopenta[a]phenanthren-3-yl)amino)-4-oxobutanoic acid], for which the “inhibition of steady-state vs peak response, NMDARs” value in data set [1] (10 μM compound present continuously, NMDA 100 μM) is given as “more efficient inhibitor of tonically activated receptors at the steady–state”. In data set [1] (100 μM NMDA, hippocampal neurons), this molecule displayed a half-inhibitory concentration (IC50) of 8.3 ± 2.1 µM. This molecule also returned a share remaining at 8 h, 42.1 μg/mL in data set [2] of 97%.
